Data from patent publication US11051515B2, “3-acyl-benzamides and their use as herbicides” (Bayer Aktiengesellschaft, priority 2017, dated 2021).

Columns and labels:
[1] = system: VERPE; assay: Pre-emergence action against VERPE; assay type: in vivo, Veronica persica; conditions: Dosage 320 g/ha, pre-emergence
Excerpt: (§1) Seeds of monocotyledonous and dicotyledonous weed plants and crop plants are laid out in sandy loam soil in wood-fiber pots and covered with soil. The compounds of the invention, formulated in the form of wettable powders (WP) or as emulsion concentrates (EC), are then applied to the surface of the covering soil in the form of an aqueous suspension or emulsion at a water application rate equating to […], with addition of 0.2% wetting agent. After the treatment, the pots are placed in a greenhouse and kept under good growth conditions for the trial plants. The damage to the test plants is scored visually after a test period of 3 weeks by comparison with untreated controls (herbicidal activity in percent (%): 100% activity=the plants have died, 0% activity=like control plants).

[2] = system: ABUTH; assay: Post-emergence action against ABUTH; assay type: in vivo, Abutilon theophrasti; conditions: post-emergence, dosage 80 g/ha, visual assessment about 3 weeks after treatment vs untreated controls
Experimental: (§2) Seeds of monocotyledonous and dicotyledonous weed and crop plants are laid out in sandy loam soil in wood-fiber pots, covered with soil and cultivated in a greenhouse under good growth conditions. 2 to 3 weeks after sowing, the test plants are treated at the one-leaf stage. The compounds of the invention, formulated in the form of wettable powders (WP) or as emulsion concentrates (EC), are then sprayed onto the green parts of the plants in the form of an aqueous suspension or emulsion at a water application rate equating to […], with addition of 0.2% wetting agent. After the test plants have been left to stand in the greenhouse under optimal growth conditions for about 3 weeks, the action of the preparations is assessed visually in comparison to untreated controls (herbicidal action in percent (%): 100% activity=the plants have died, 0% activity=like control plants). […] At the same time, inventive compounds leave Gramineae crops such as barley, wheat, rye, millet/Sorghum, corn or rice virtually undamaged when applied post-emergence, even at high active ingredient dosages. In addition, some substances are also harmless to dicotyledonous crops such as soya, cotton, oilseed rape, sugar beet or potatoes. Some of the compounds according to the invention have high selectivity and are therefore suitable for controlling unwanted vegetation in agricultural crops by the post-emergence method. The data of Tables B18 to B34 below illustrate, in an exemplary manner, the […] herbicidal action of the compounds according to the invention, the herbicidal activity being stated in percent.

[3] = system: VERPE; assay: Post-emergence action against VERPE; assay type: in vivo, Veronica persica; conditions: dosage 80 g/ha
Experimental: as §2

[4] = system: AMARE; assay: Post-emergence action against AMARE; assay type: in vivo, Amaranthus retroflexus; conditions: post-emergence, dosage 80 g/ha, visual assessment about 3 weeks after treatment vs untreated controls; for pest or weed control at 80 g/ha: Amaranthus retroflexus, 504 h, read-out: Post-emergence action against AMARE (herbicidal action in percent)
Experimental: as §2

[5] = system: STEME; assay: Pre-emergence action against STEME; assay type: in vivo, Stellaria media; conditions: Dosage 320 g/ha, pre-emergence
Excerpt: as §1

[6] = system: AMARE; assay: Pre-emergence action against AMARE; assay type: in vivo, Amaranthus retroflexus; conditions: pre-emergence, dosage 320 g/ha, scored visually after 3 weeks vs untreated controls
Excerpt: as §1

[7] = system: STEME; assay: Post-emergence action against STEME; assay type: in vivo, Stellaria media; conditions: post-emergence, dosage 80 g/ha
Experimental: as §2

[8] = system: VIOTR; assay: Pre-emergence action against VIOTR; assay type: in vivo, Viola tricolor; conditions: Dosage 320 g/ha, pre-emergence
Excerpt: as §1

[9] = system: PHBPU; assay: Post-emergence action against PHBPU; assay type: in vivo, Pharbitis purpurea; conditions: post-emergence, dosage 80 g/ha
Experimental: as §2

[10] = system: VIOTR; assay: Post-emergence action against VIOTR; assay type: in vivo, Viola tricolor; conditions: post-emergence, dosage 80 g/ha
Experimental: as §2

[11] = system: MATIN; assay: Post-emergence action against MATIN; assay type: in vivo, Matricaria inodora; conditions: post-emergence, dosage 80 g/ha, visual assessment about 3 weeks after treatment vs untreated controls
Experimental: as §2

[12] = system: MATIN; assay: Pre-emergence action against MATIN; assay type: in vivo, Matricaria inodora; conditions: Dosage 320 g/ha, pre-emergence
Excerpt: as §1

[13] = system: ABUTH; assay: Pre-emergence action against ABUTH; assay type: in vivo, Abutilon theophrasti; conditions: pre-emergence, dosage 320 g/ha, scored visually after 3 weeks vs untreated controls
Excerpt: as §1

[14] = system: ECHCG; assay: Post-emergence action against ECHCG; assay type: in vivo, Echinochloa crus-galli; conditions: post-emergence, dosage 80 g/ha, visual assessment about 3 weeks after treatment vs untreated controls
Experimental: as §2

[15] = system: ALOMY; assay: Pre-emergence action against ALOMY; assay type: in vivo, Alopecurus myosuroides; conditions: dosage 320 g/ha; pre-emergence; scored visually after 3 weeks vs untreated controls; 100% = plants have died, 0% = like control plants
Excerpt: as §1

[16] = system: ECHCG; assay: Pre-emergence action against ECHCG; assay type: in vivo, Echinochloa crus-galli; conditions: pre-emergence, dosage 320 g/ha, scored visually after 3 weeks vs untreated controls
Excerpt: as §1

[17] = system: SETVI; assay: Pre-emergence action against SETVI; assay type: in vivo, Setaria viridis; conditions: pre-emergence, dosage 320 g/ha, scored visually after 3 weeks vs untreated controls
Excerpt: as §1

Structure (SMILES)	Pre-emergence action against STEME [5]	Pre-emergence action against AMARE (herbicidal activity) [6]	Post-emergence action against STEME [7]	Pre-emergence action against VERPE [1]	Pre-emergence action against VIOTR [8]	Post-emergence action against PHBPU [9]	Post-emergence action against VIOTR [10]	Post-emergence action against AMARE (herbicidal action in percent) [4]	Post-emergence action against MATIN (herbicidal action in percent) [11]	Pre-emergence action against MATIN [12]	Pre-emergence action against ABUTH (herbicidal activity) [13]	Post-emergence action against ABUTH (herbicidal action in percent) [2]	further results
CC(=O)c1c(C(F)(F)F)ccc(C(=O)Nc2nnnn2C)c1C [1-14]													pest or weed control at 320 g/ha ([1]; Veronica persica, 504 h): 90%; pest or weed control at 80 g/ha ([2]; Abutilon theophrasti, 504 h, read-out: Post-emergence action against ABUTH (herbicidal action in percent)): 90%; pest or weed control at 80 g/ha ([3]; Veronica persica, 504 h): 80%; pest or weed control at 80 g/ha [4]: 80%
Cn1nnnc1NC(=O)c1ccc(Cl)c(C(=O)C2CCCC2)c1Cl [1-281]	80%	90%	100	100%	100%	90	100	90%	80%	90%			Post-emergence action against VERPE [3]: 80
Cn1nnnc1NC(=O)c1ccc(Cl)c(C(=O)c2cccs2)c1Cl [1-282]													pest or weed control at 320 g/ha ([6]; Amaranthus retroflexus, 504 h, read-out: Pre-emergence action against AMARE (herbicidal activity)): 80%; pest or weed control at 80 g/ha ([7]; Stellaria media, 504 h): 80%; pest or weed control at 80 g/ha [4]: 80%; pest or weed control at 320 g/ha ([12]; Tripleurospermum inodorum, 504 h): 80%; pest or weed control at 320 g/ha ([13]; Abutilon theophrasti, 504 h, read-out: Pre-emergence action against ABUTH (herbicidal activity)): 90%
COc1ccc(C(=O)c2c(Cl)ccc(C(=O)Nc3nnnn3C)c2Cl)cc1 [1-283]			80								90%		
CCn1nnnc1NC(=O)c1ccc(C(F)(F)F)c(C(=O)C2CCCC2)c1Cl [2-154]			90			90		100%				90%	
CCn1nnnc1NC(=O)c1ccc(C(F)(F)F)c(C(=O)C(F)(F)F)c1Cl [2-162]	100%	90%	100		100%	100	100	90%			100%		
CCn1nnnc1NC(=O)c1ccc(Cl)c(C(=O)C2CCCC2)c1Cl [2-281]	90%	90%	100	90%	100%	100	90	90%	80%	90%			Post-emergence action against VERPE [3]: 80
CCn1nnnc1NC(=O)c1ccc(Cl)c(C(=O)c2cccs2)c1Cl [2-282]	80%	80%									100%		
CCn1nnnc1NC(=O)c1ccc(Cl)c(C(=O)c2ccc(OC)cc2)c1Cl [2-283]	90%											80%	
CCCn1nnnc1NC(=O)c1ccc(C)c(C(=O)CC)c1Cl [3-135]	90%	90%	100	80%		90		90%	80%	90%			Post-emergence action against ECHCG (herbicidal action in percent) [14]: 80%; Pre-emergence action against ALOMY (herbicidal activity in percent) [15]: 80%; Pre-emergence action against ECHCG (herbicidal activity) [16]: 90%
CCCn1nnnc1NC(=O)c1ccc(C(F)(F)F)c(C(=O)C(C)C)c1Cl [3-140]	100%	100%	90	100%	100%	90	100	80%	90%	100%	100%	100%	Post-emergence action against ECHCG (herbicidal action in percent) [14]: 100%; Pre-emergence action against ALOMY (herbicidal activity in percent) [15]: 90%; Pre-emergence action against ECHCG (herbicidal activity) [16]: 90%; SETVI (Table B8, pre-emergence herbicidal activity) [17]: 90%
CCCn1nnnc1NC(=O)c1ccc(C(F)(F)F)c(C(=O)C2CCCCC2)c1Cl [3-155]	100%	90%	80					90%			100%	80%	
CCCn1nnnc1NC(=O)c1ccc(C(F)(F)F)c(C(=O)c2cc(F)cc(F)c2)c1Cl [3-282]					90%	90		80%				80%	
